Patent publication US12048682B2, “Combination of micheliolide derivatives or nanoparticles with ionizing radiation and checkpoint inhibitors for cancer therapy” (The University of Chicago, priority 2018, dated 2024)

Experiments:
glioma GL261 tumor model [1] = experiment: In vivo antitumor activity, glioma GL261 tumor model on wildtype C57BL/6 mice (irradiation and PD-L1 antibody combination)
Procedure: The combination of DMAMCL, irradiation, and PD-L1 antibody was evaluated on the glioma GL261 tumor model on wildtype C57BL/6 mice. The treatment began 14 days after the inoculation of 2×10^6 GL261 cells. The mice were orally dosed with 50 mg/kg DMAMCL or PBS daily and irradiated with 2 Gy irradiation approximately 4 hrs after dosing, as applicable, for up to 12 days, starting when the tumors reached ˜150 mm^3-200 mm^3. One group of mice received two doses of 75 μg PD-L1 antibody on days 0 and 4. […] By the cessation of treatment, 3/5 tumors treated with this combination were barely palpable.

glioma GL261 tumor model [2] = experiment: In vivo antitumor activity, glioma GL261 tumor model on immunocompromised Rag2-/- C57BL/6 mice
Procedure: The combination of […] and irradiation was evaluated on the glioma GL261 tumor model on immunocompromised Rag2^-/- C57BL/6 mice. The mice were orally dosed with 50 mg/kg […] or PBS daily and irradiated with 4 Gy irradiation approximately 4 hrs after dosing, as applicable, for up to 7 days, starting when the tumors reached about […]. A Precision X-ray X-RAD 225 Image Guided Biologic Irradiator (Precision X-Ray Irradiation, North Branford, Connecticut, United States of America) was used for all animal studies. The instrument was set at 225 peak kilovoltage (kVp) and 13 milliampere (mA), with a 0.3 mm flat-board copper (Cu) filter installed before a 15-mm collimator. The irradiation was given in two successive fractions with incident angles of 0° and 180° for each mouse.

GL261 cells = experiment: In vitro cytotoxicity against glioma cells GL261 (MTS assay), with or without X-ray irradiation; assay type: cell-based, mouse
Procedure: GL261 cells were seeded onto 96-well plates at a density of 2000 cells/well and treated with various concentrations of the dimethylamino Michael adduct of MCL (dimethylamino micheliolide, […]) for 24 hours to allow for sufficient cellular uptake and conversion to MCL before irradiation. The cells were irradiated with varying amounts of X-ray irradiation and then incubated for an additional 24 hours. The culture medium was exchanged with fresh medium and further incubated for an additional 48 hours. The cell viability was then detected by (3-(4,5-dimethylthiazol-2-yl)-5-(3-carboxymethoxyphenyl)-2-(4-sulfophenyl)-2H-tetrazolium) (MTS) assay (Promega, Madison, Wisconsin, United States of America).

`CC1=C2CC[C@@](C)(O)[C@@H]2[C@H]2OC(=O)[C@@H](CN(C)C)[C@@H]2CC1` [DMAMCL, dimethylamino micheliolide] was tested, and the tumor growth (glioma GL261 tumor model [1]; DMAMCL 50 mg/kg oral daily plus 2 Gy irradiation plus 75 μg PD-L1 antibody on days 0 and 4, wildtype C57BL/6 mice) was “controlled and regressed tumor growth immediately after treatment”, the tumor growth (glioma GL261 tumor model [1]; DMAMCL 50 mg/kg oral daily plus 2 Gy irradiation, up to 12 days, wildtype C57BL/6 mice) was “suppressed tumor growth and ultimately led to tumor regression” and the tumor growth (glioma GL261 tumor model [1]; DMAMCL alone, 50 mg/kg oral daily up to 12 days, wildtype C57BL/6 mice) was “no effect on tumor growth”. For the same molecule, the “tumors barely palpable by the cessation of treatment” value (glioma GL261 tumor model [1]; DMAMCL plus 2 Gy irradiation plus PD-L1 antibody, wildtype C57BL/6 mice) was 3/5, the tumor growth (glioma GL261 tumor model [2]; DMAMCL 50 mg/kg oral daily plus 4 Gy irradiation about 4 hrs after dosing, up to 7 days) was “successfully controlled tumor growth” and the tumor growth (glioma GL261 tumor model [2]; DMAMCL alone, 50 mg/kg oral daily up to 7 days) was “initially suppressed tumor growth”. For the same molecule, the “tumor size compared to irradiation alone” value (glioma GL261 tumor model [2]; DMAMCL alone, 50 mg/kg oral daily up to 7 days, final tumor size) was “not significantly different in size”, the “cytotoxicity (cell viability)” value (GL261 cells; 1 μM DMAMCL and X-ray irradiation of 8 Gy) was “significant cytotoxicity” and the “cytotoxicity (cell viability)” value (GL261 cells; 10 μM DMAMCL and X-ray irradiation of 8 Gy) was “significant cytotoxicity”. The “toxicity (cell viability)” value (GL261 cells; DMAMCL monotherapy, doses up to 10 μM, no irradiation) was “little to no toxicity”.
